Counter-ions that a name gives are not always drawn. Like-named read-outs stand apart in the source and are kept apart here.
Tests used:
[1] = tested on: hESCs and hESC-derived NSCs; test: Comparative ATP screening on hESCs and hESC-derived NSCs (ratio ESC/NSC or NSC/ESC); set-up: hit class in primary screen / ESC/NSC: dose or concentration left out as unconfirmed; conditions: for hit class in primary screen: NINDS primary screen, ATP relative to DMSO controls
Source text: Hits were defined based on the ability of a compound to affect ATP levels relative to DMSO controls on each plate.

[2] = tested on: hESC-derived NSCs; test: ATP assay in hESC-derived NSCs (96-well, primary screen and retest); type: cell-based, human; set-up: cytotoxicity: dose or concentration left out as unconfirmed; toxicity to NSCs (reduced ATP concentrations) / ATP levels in NSC population: unit of the concentration uncertain; conditions: for toxicity to NSCs (reduced ATP concentrations): 1 (unit uncertain), 2.5 (unit uncertain) and 10 (unit uncertain), treated NSCs versus untreated NSCs, untreated and treated hESCs
Experimental: EBs were then cultured for additional 2-3 days in suspension in neural induction media containing DMEM/F12 with Glutamax, 1×NEAA, 1×N2 and FGF2 (20 ng/ml) prior to attachment on cell culture plates. […] To obtain a pure population of NSCs, rosettes were manually isolated and dissociated into single cells using Accutase. The NSCs population was expanded in Neurobasal media containing 1×NEAA, 1×L-Glutamine (2 mM), 1×B27, LIF and FGF2 20 ng/ml.
Media was changed every day for hESCs and every other day for NSCs and additionally changed prior to drug treatment. The cells were treated with compounds from the NINDS library diluted in […] of either ESC or NSC media to a final concentration of 2.5 mM in 0.01% DMSO. […] For all sampling, ESC and NSC plates were processed in parallel for one drug or control condition at a time.
For ATP measurements, the media was removed, cells were washed 1× in milliQ water and reconstituted in […] ATP-Lite Mammalian Lysis Buffer and shaken for 5 minutes. Two […] aliquots of lysed cells were replated onto separate 96 well plates for later protein measurements.
To identify compounds that are toxic to hESCs, hESC-derived NSCs, or both, we screened 720 FDA-approved drugs of the NINDS collection by testing the toxicity of each drug at a dose of 2.5 mM. For endpoint measurement of cell death caused by drug toxicity, we used a widely accepted ATP assay that measures changes in ATP level as an indicator of cellular response to cell death. In this assay, total ATP content per well was measured and normalized to the total cellular protein.
Three concentrations of each compound (1 mM, 2.5 mM and 10 mM) were used in the retest.

[3] = Prestwick screening data, group: Toxic To NSC (and not ESCs)
[4] = Prestwick screening data, group: Toxic To ESCs (and not NSCs)
[5] = NINDS screening data, […], ATP assay, 48 hours
[6] = Prestwick screening data, group: Toxic to both but (5x) more toxic to ESCs
[7] = Homo sapiens, NINDS primary screen, 48 hours, read-out: NSC ATP values below the control mean

Compound: CN(Cc1cnc2nc(N)nc(N)c2n1)c1ccc(C(=O)N[C@@H](CCC(=O)O)C(=O)O)cc1 (racemic) [Amethopterin (R,S)]
- ESC/NSC [1, 3]: 6.45

Compound: COc1ccc2c(c1OC)CN1CCc3cc4c(cc3C1C2)OCO4 (stereo not shown) [(D,L)-Tetrahydroberberine]
- NSC/ESC [1, 4]: 2.336

Compound: CC[N+]1(C)[C@@H]2CC[C@H]1CC(OC(=O)[C@@H]1CC[C@@](C(=O)OC3C[C@H]4CC[C@@H](C3)[N+]4(C)CC)(c3ccccc3)c3ccccc31)C2.[Cl-].[Cl-] (stereo partly drawn) [Beta-Belladonnine Dichloroethylate]
- NSC/ESC [1, 4]: 2.717

Compound: CC(=O)Oc1ccc(C(c2ccc(OC(C)=O)cc2)c2ccccn2)cc1 [Bisacodyl]
- ESC/NSC [1, 3]: 2.701

Compound: CNc1ccc2oc(C[C@H]3O[C@@]4(CC[C@H]3C)O[C@H]([C@H](C)C(=O)c3ccc[nH]3)[C@H](C)C[C@H]4C)nc2c1C(=O)O [Calcimycin]
- ESC/NSC [1, 5]: 377.6

Compound: CC[C@@]1(O)C(=O)OCc2c1cc1n(c2=O)Cc2cc3ccccc3nc2-1 [Camptothecine (S,+)]
- NSC/ESC [1, 6]: 14.46

Compound: C[C@@]12C(=O)OC(=O)[C@]1(C)[C@H]1CC[C@@H]2O1 [Cantharidin]
- ESC/NSC ([1]; Prestwick screening data, group: Toxic to both but (>5x) more toxic to NSCs): 6.171

Compound: CCCCCCCCCCCCCCCC[N+](C)(C)C.[Br-] [Cetrimonium Bromide]
- ESC/NSC [1, 5]: 5.402

Compound: CCCCCCCCCCCCCCCC[n+]1ccccc1 [Cetylpyridinium Chloride]
- ESC/NSC [1]: 109.4

Compound: CN1Cc2c(ccc3c2OCO3)C2C(O)Cc3cc4c(cc3C21)OCO4 (stereo not drawn) [Chelidonine (+)]
- ESC/NSC [1, 3]: 1.999

Compound: CC(C)(C)CC(C)(C)c1ccc(O)c(Cc2ccc(Cl)cc2Cl)c1 [Clofoctol]
- cytotoxicity [2, 7]: ≥ 15%
- toxicity to NSCs (reduced ATP concentrations) ([2]; retest): dose-dependent specific toxicity
- hit class in primary screen [1]: NSC Killers

Compound: CCN(CC)C(=S)SSC(=S)N(CC)CC [Disulfiram]
- NSC/ESC [1, 4]: 10.3

Compound: COc1cccc2c1C(=O)c1c(O)c3c(c(O)c1C2=O)C[C@@](O)(C(=O)CO)C[C@@H]3O[C@H]1C[C@H](N)[C@H](O)[C@H](C)O1 [Doxorubicin Hydrochloride]
- NSC/ESC [1, 6]: 8.906

Compound: CC1(C)O[C@@H]2C[C@H]3[C@@H]4C[C@H](F)C5=CC(=O)CC[C@]5(C)[C@H]4[C@@H](O)C[C@]3(C)[C@]2(C(=O)CO)O1 [Flurandrenolide]
- NSC/ESC [1, 4]: 2.308

Compound: CCC(=O)O[C@]1(C(=O)SCF)[C@H](C)C[C@H]2[C@@H]3C[C@H](F)C4=CC(=O)C=C[C@]4(C)[C@@]3(F)[C@@H](O)C[C@@]21C [Fluticasone Propionate]
- NSC/ESC [1, 4]: 1.954

Compound: Fc1ccc(C(OCCN2CCN(CCCc3ccccc3)CC2)c2ccc(F)cc2)cc1 [Gbr 12909 Dihydrochloride]
- NSC/ESC [1, 4]: 1.754

Compound: CCCCC(CC)CN1CN(CC(CC)CCCC)CC(C)(N)C1 (stereo not shown) [Hexetidine]
- cytotoxicity [2, 7]: ≥ 15%
- hit class in primary screen [1]: NSC Killers

Compound: CC[C@@H](C(=O)[C@@H](C)[C@@H](O)[C@H](C)CCc1ccc(C)c(O)c1C(=O)O)[C@H]1O[C@](CC)([C@H]2CC[C@](O)(CC)[C@H](C)O2)C[C@@H]1C [Lasalocid Sodium Salt]
- ESC/NSC [1, 3]: 2.052

Compound: CC1=CC(=O)c2ccccc2C1=O [Menadione]
- cytotoxicity [2, 7]: ≥ 15%
- toxicity to NSCs (reduced ATP concentrations) ([2]; retest): dose-dependent specific toxicity
- hit class in primary screen [1]: NSC Killers

Compound: COC(=O)Nc1nc2ccc(SC(C)C)cc2[nH]1 [Methiazole]
- ESC/NSC [1, 3]: 3.01

Compound: Cl.Cl.c1ccc2c3c([nH]c2c1)C1C2CCC(C4CCCNC42)N1CC3 (stereo not shown) [Nitrarine Dihydrochloride]
- NSC/ESC [1, 4]: 1.949

Compound: CC(=O)O[C@H]1C(=O)[C@@]2(C)[C@H]([C@H](OC(=O)c3ccccc3)[C@]3(O)C[C@H](OC(=O)[C@H](O)[C@@H](NC(=O)c4ccccc4)c4ccccc4)C(C)=C1C3(C)C)[C@]1(OC(C)=O)CO[C@@H]1C[C@@H]2O [Paclitaxel]
- NSC/ESC [1, 6]: 5.325

Compound: C1CCC(C(CC2CCCCN2)C2CCCCC2)CC1.O=C(O)/C=C\C(=O)O (stereo not shown) [Perhexilline Maleate]
- hit class in primary screen [1]: NSC Killers

Compound: COc1ccc(C[C@H](N)C(=O)N[C@H]2[C@@H](O)[C@H](n3cnc4c(N(C)C)ncnc43)O[C@@H]2CO)cc1 [Puromycin Dihydrochloride]
- NSC/ESC [1, 6]: 10.84

Compound: COc1ccc(CN(CCN(C)C)c2ccccn2)cc1 [Pyrilamine Maleate]
- NSC/ESC [1, 4]: 1.934

Compound: CCc1nc(N)nc(N)c1-c1ccc(Cl)cc1 [Pyrimethamine]
- ESC/NSC [1, 3]: 2.009

Compound: [O-][n+]1ccccc1[S-].[O-][n+]1ccccc1[S-].[Zn+2] [Pyrithione Zinc]
- ESC/NSC [1]: 116.4

Compound: C[n+]1cc2c3c(ccc2c2ccc4cc5c(cc4c21)OCO5)OCO3 [Sanguinarine Nitrate]
- ESC/NSC [1, 5]: 8.446

Compound: C[n+]1cc2c3c(ccc2c2ccc4cc5c(cc4c21)OCO5)OCO3 [Sanguinarine]
- ESC/NSC ([1]; Prestwick screening data, […]): 102.6

Compound: CO[C@H]1C[C@H](O[C@@H]2/C(C)=C/C[C@@H]3C[C@@H](C[C@]4(CC[C@H](C)[C@@H](C5CCCCC5)O4)O3)OC(=O)[C@@H]3C=C(C)/C(=N/O)[C@H]4OC/C(=C\C=C\[C@@H]2C)[C@]43O)O[C@@H](C)[C@@H]1O [Selamectin]
- cytotoxicity at 2500 µM ([2]; Homo sapiens, NINDS primary screen, 2.5 mM, 48 hours, read-out: NSC ATP values below the control mean): ≥ 15%
- toxicity to NSCs (reduced ATP concentrations) ([2]; retest): dose-dependent specific toxicity
- effect on NSC survival among dose responsive compounds ([2]; retest, FIG. 2 panel B): most dramatic effect on NSC survival
- hit class in primary screen [1]: NSC Killers

Compound: Cc1ccnc(NS(=O)(=O)c2ccc(N)cc2)n1 [Sulfamerazine]
- NSC/ESC [1, 4]: 2.003

Compound: C[C@H]1CC[C@]2(NC1)O[C@H]1C[C@H]3[C@@H]4CC[C@H]5C[C@@H](O[C@@H]6O[C@H](CO)[C@H](O[C@@H]7O[C@H](CO)[C@@H](O)[C@H](O[C@@H]8OC[C@@H](O)[C@H](O)[C@H]8O)[C@H]7O[C@@H]7O[C@H](CO)[C@@H](O)[C@H](O)[C@H]7O)[C@H](O)[C@H]6O)CC[C@]5(C)[C@H]4CC[C@]3(C)[C@H]1[C@@H]2C [Tomatine]
- ESC/NSC ([1]; Prestwick screening data, […]): 9.242

Compound: O=c1[nH]c(=O)n([C@H]2C[C@H](O)[C@@H](CO)O2)cc1C(F)(F)F [Trifluridine]
- ESC/NSC [1, 3]: 2.955

Compound: COc1cc(-c2ccc(=O)[nH]n2)ccc1OC(F)F [Zardaverine]
- NSC/ESC [1, 4]: 1.976

Compound: COC1=CC(=O)C[C@@H](C)[C@]12Oc1c(Cl)c(OC)cc(OC)c1C2=O [griseofulvin]
- cytotoxicity [2, 7]: ≥ 15%
- hit class in primary screen [1]: NSC Killers

Compound: CN1CCN(CC(=O)N2c3ccccc3C(=O)Nc3cccnc32)CC1 [pirenzepine HCL]
- cytotoxicity [2, 7]: ≥ 15%
- toxicity to NSCs (reduced ATP concentrations) ([2]; retest): dose-dependent specific toxicity
- hit class in primary screen [1]: NSC Killers

Compound: (−)-Levobunolol Hydrochloride
- NSC/ESC [1, 4]: 1.689

Compound: Clofilium Tosylate
- NSC/ESC [1, 4]: 2.184
